Test results as given in patent publication US8686018B2, “Pharmaceutical composition” (Eisai R&D Management Co., Ltd., priority 2010, dated 2014).

Each molecule was assayed against T1, EP4 (Homo sapiens (Human), UniProt P35408) (assay: Radioligand EP4 receptor binding assay). Conditions: Chem-1 cell membranes overexpressing human EP4, [3H]-PGE2 displacement.
Protocol: The radioligand EP4 binding assay was performed using ChemiScreen recombinant human EP4 receptor membrane preparations from Millipore, according to manufacturer's instructions. Briefly, membranes prepared from Chem-1 cells overexpressing human EP4 cDNA (Millipore) were mixed with 1.8 nmol.L^−1 [^3H]-PGE2 and 5 μmol.L^−1 unlabelled PGE2 in the presence or absence of various concentrations of testing compounds in binding buffer (50 mmol.L^−1 HEPES, pH 7.4, 5 mmol.L^−1 MgCl2, 1 mmol.L^−1 CaCl2, 0.2% BSA) in a nonbinding 96-well plate, and incubated for 1-2 h at room temperature. Prior to filtration, a GF/C 96-well filter plate was coated with 0.33% polyethyleneimine for 30 min, then washed with 50 mmol.L^−1 HEPES, pH 7.4, 0.5% BSA. Binding reactions were transferred to the filter plate, and washed 3 times with Wash Buffer (1 mL per well per wash). The plate was dried and radioactivity counted.

T1 sequence (P35408 whole entry): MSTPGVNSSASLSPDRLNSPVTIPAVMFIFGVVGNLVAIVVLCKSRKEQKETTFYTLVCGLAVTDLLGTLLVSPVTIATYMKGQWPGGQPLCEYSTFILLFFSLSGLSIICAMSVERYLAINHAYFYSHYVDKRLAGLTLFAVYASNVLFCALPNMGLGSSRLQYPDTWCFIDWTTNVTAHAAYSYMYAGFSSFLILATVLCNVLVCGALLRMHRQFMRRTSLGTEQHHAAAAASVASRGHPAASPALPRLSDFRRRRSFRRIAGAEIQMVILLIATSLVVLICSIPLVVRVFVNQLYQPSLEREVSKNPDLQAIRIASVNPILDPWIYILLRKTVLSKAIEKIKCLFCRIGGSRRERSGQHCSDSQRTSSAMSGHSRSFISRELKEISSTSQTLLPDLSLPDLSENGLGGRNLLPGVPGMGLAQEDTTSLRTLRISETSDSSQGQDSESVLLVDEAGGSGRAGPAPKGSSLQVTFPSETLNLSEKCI

Row | Ki [nM] | SMILES
1 | 14 | Cc1nn(C)c(Oc2cccc(C(F)(F)F)c2)c1C(=O)N[C@@H](C)c1ccc(C(=O)O)cc1 [ER-885290-00]
2 | 43 | Cc1nn(C)c(Oc2cccc(C(F)(F)F)c2)c1C(=O)NC1(c2ccc(C(=O)O)cc2)CC1 [ER-885740-00]
3 | 16 | Cn1nc(C(F)(F)F)c(C(=O)NC2(c3ccc(C(=O)O)cc3)CC2)c1Oc1cccc(C(F)(F)F)c1 [ER-885741-00]
4 | 50 | C[C@H](NC(=O)c1c(C(F)F)nn(C)c1Oc1cccc(Cl)c1)c1ccc(C(=O)O)cc1 [ER-886045-00]
5 | 13 | C[C@H](NC(=O)c1c(C(F)(F)F)nn(C)c1Oc1ccc(Cl)c(Cl)c1)c1ccc(C(=O)O)cc1 [ER-886074-00]
6 | 8 | Cn1nc(C(F)F)c(C(=O)NC2(c3ccc(C(=O)O)cc3)CC2)c1Oc1cccc(C(F)(F)F)c1 [ER-886078-00]
7 | 10 | C[C@H](NC(=O)c1c(C(F)F)nn(C)c1Oc1cccc(OC(F)F)c1)c1ccc(C(=O)O)cc1 [ER-886090-00]
8 | 26 | C[C@H](NC(=O)c1c(C(F)F)nn(C)c1Oc1cccc(C(F)F)c1)c1ccc(C(=O)O)cc1 [ER-887480-00]

What follows are molecules tested against T1, EP4 (assay: CRE-PLAP reporter assay). Conditions: SE302 (HEK/293 clone) cells with endogenous EP4, stimulated with 3 ng/mL PGE2 overnight.
Format: cell-based
Protocol: Cells were maintained in DMEM/F12 (50:50) (MediaTech) supplemented with 10% FBS (Tissue Culture Biologicals) plus penicillin/streptomycin. When used for assays, cells were plated in a 96-well plate at 2×10^4 cells/100 μL/well in serum-free assay medium (DMEM/F12 supplemented with 0.1% BSA plus penicillin/streptomycin) and incubated for 4-6 h.
Exemplary compounds of the present invention were assayed according to the methods set forth above in the CRE-PLAP reporter assay described above.

Row | SMILES | IC50 [nM]
9 | Cc1nn(C)c(Oc2ccc(Cl)cc2)c1C(=O)N[C@@H](C)c1ccc(C(=O)O)cc1 [ER-880663-00] | 619
10 | C[C@H](NC(=O)c1c(C(F)(F)F)nn(C)c1Oc1cccc(Cl)c1)c1ccc(C(=O)O)cc1 [ER-885289-00] | 45
11 | Cc1nn(C)c(Oc2cccc(C(F)(F)F)c2)c1C(=O)N[C@@H](C)c1ccc(C(=O)O)cc1 [ER-885290-00] | 18
12 | C[C@H](NC(=O)c1c(C(F)(F)F)nn(C)c1Oc1cccc(C(F)(F)F)c1)c1ccc(C(=O)O)cc1 [ER-885291-00] | 27
13 | Cc1nn(C)c(Oc2ccc(F)cc2)c1C(=O)N[C@@H](C)c1ccc(C(=O)O)cc1 [ER-885302-00] | 261
14 | Cc1nn(C)c(Oc2ccc(C(F)(F)F)cc2)c1C(=O)N[C@@H](C)c1ccc(C(=O)O)cc1 [ER-885311-00] | 273
15 | Cc1nn(C)c(Oc2ccc(Cl)c(Cl)c2)c1C(=O)N[C@@H](C)c1ccc(C(=O)O)cc1 [ER-885716-00] | 92
16 | Cc1nn(C)c(Oc2cccc(F)c2)c1C(=O)N[C@@H](C)c1ccc(C(=O)O)cc1 [ER-885717-00] | 974
17 | Cc1nn(C)c(Oc2ccc(F)c(F)c2)c1C(=O)N[C@@H](C)c1ccc(C(=O)O)cc1 [ER-885718-00] | 467
18 | Cc1nn(C)c(Oc2cccc(F)c2F)c1C(=O)N[C@@H](C)c1ccc(C(=O)O)cc1 [ER-885719-00] | 2670
19 | Cc1nn(C)c(Oc2cc(F)ccc2F)c1C(=O)N[C@@H](C)c1ccc(C(=O)O)cc1 [ER-885720-00] | 2220
20 | Cc1nn(C)c(Oc2cc(Cl)cc(Cl)c2)c1C(=O)N[C@@H](C)c1ccc(C(=O)O)cc1 [ER-885721-00] | 846
21 | Cc1nn(C)c(Oc2cccc(C(F)(F)F)c2)c1C(=O)NC1(c2ccc(C(=O)O)cc2)CC1 [ER-885740-00] | 12
22 | Cn1nc(C(F)(F)F)c(C(=O)NC2(c3ccc(C(=O)O)cc3)CC2)c1Oc1cccc(C(F)(F)F)c1 [ER-885741-00] | 13
23 | Cn1nc(C(F)(F)F)c(C(=O)NC2(c3ccc(C(=O)O)cc3)CC2)c1Oc1cccc(Cl)c1 [ER-885743-00] | 38
24 | Cc1nn(C)c(Oc2cccc(Cl)c2)c1C(=O)N[C@@H](C)c1ccc(C(=O)O)cc1 [ER-885744-00] | 168
25 | Cc1ccc(Oc2c(C(=O)N[C@@H](C)c3ccc(C(=O)O)cc3)c(C)nn2C)cc1 [ER-885749-00] | 451

Row | SMILES | IC50 [nM]
26 | Cc1nn(C)c(Oc2cccc(Cl)c2Cl)c1C(=O)N[C@@H](C)c1ccc(C(=O)O)cc1 [ER-886022-00] | 719
27 | Cc1nn(C)c(Oc2cc(F)cc(Cl)c2)c1C(=O)N[C@@H](C)c1ccc(C(=O)O)cc1 [ER-886024-00] | 637
28 | Cc1nn(C)c(Oc2cc(F)ccc2Cl)c1C(=O)N[C@@H](C)c1ccc(C(=O)O)cc1 [ER-886025-00] | 4910
29 | Cc1cccc(Oc2c(C(=O)N[C@@H](C)c3ccc(C(=O)O)cc3)c(C)nn2C)c1 [ER-886032-00] | 356
30 | Cc1cc(C)cc(Oc2c(C(=O)N[C@@H](C)c3ccc(C(=O)O)cc3)c(C)nn2C)c1 [ER-886033-00] | 2120
31 | COc1cc(OC)cc(Oc2c(C(=O)N[C@@H](C)c3ccc(C(=O)O)cc3)c(C)nn2C)c1 [ER-886035-00] | 3660
32 | C[C@H](NC(=O)c1c(C(F)F)nn(C)c1Oc1cccc(Cl)c1)c1ccc(C(=O)O)cc1 [ER-886045-00] | 18
33 | Cc1nn(C)c(Oc2cccc(OC(F)(F)F)c2)c1C(=O)N[C@@H](C)c1ccc(C(=O)O)cc1 [ER-886061-00] | 89
34 | C[C@H](NC(=O)c1c(C(F)(F)F)nn(C)c1Oc1cccc(F)c1)c1ccc(C(=O)O)cc1 [ER-886072-00] | 132
35 | C[C@H](NC(=O)c1c(C(F)(F)F)nn(C)c1Oc1ccc(F)c(F)c1)c1ccc(C(=O)O)cc1 [ER-886073-00] | 109
36 | C[C@H](NC(=O)c1c(C(F)(F)F)nn(C)c1Oc1ccc(Cl)c(Cl)c1)c1ccc(C(=O)O)cc1 [ER-886074-00] | 10
37 | Cc1nn(C)c(Oc2cccc(Cl)c2)c1C(=O)NC1(c2ccc(C(=O)O)cc2)CC1 [ER-886077-00] | 85
38 | Cn1nc(C(F)F)c(C(=O)NC2(c3ccc(C(=O)O)cc3)CC2)c1Oc1cccc(C(F)(F)F)c1 [ER-886078-00] | 9
39 | Cc1nn(C)c(Oc2cccc(OC(F)F)c2)c1C(=O)N[C@@H](C)c1ccc(C(=O)O)cc1 [ER-886080-00] | 58
40 | C[C@H](NC(=O)c1c(C(F)(F)F)nn(C)c1Oc1cccc(OC(F)F)c1)c1ccc(C(=O)O)cc1 [ER-886082-00] | 88
41 | C[C@H](NC(=O)c1c(C(F)F)nn(C)c1Oc1cccc(OC(F)F)c1)c1ccc(C(=O)O)cc1 [ER-886090-00] | 17

The next lines start with the values.

Row | IC50 [nM] | SMILES
42 | 51 | C[C@H](NC(=O)c1c(C(F)F)nn(C)c1Oc1cccc(C(F)F)c1)c1ccc(C(=O)O)cc1 [ER-887480-00]
43 | 219 | Cc1nn(C)c(Oc2cccc(C(F)F)c2)c1C(=O)N[C@@H](C)c1ccc(C(=O)O)cc1 [ER-887495-00]
44 | 187 | C[C@H](NC(=O)c1c(C(F)(F)F)nn(C)c1Oc1cccc(C(F)F)c1)c1ccc(C(=O)O)cc1 [ER-887995-00]
45 | 31 | C[C@H](NC(=O)c1c(C(F)F)nn(C)c1Oc1ccc(Cl)c(Cl)c1)c1ccc(C(=O)O)cc1 [ER-888024-00]
46 | 17 | Cn1nc(C(F)F)c(C(=O)NC2(c3ccc(C(=O)O)cc3)CC2)c1Oc1ccc(Cl)c(Cl)c1 [ER-888348-00]
47 | 157 | Cn1nc(C(F)F)c(C(=O)NC2(c3ccc(C(=O)O)cc3)CC2)c1Oc1cccc(Cl)c1 [ER-888355-00]
48 | 8 | Cn1nc(C(F)(F)F)c(C(=O)NC2(c3ccc(C(=O)O)cc3)CC2)c1Oc1ccc(Cl)c(Cl)c1 [ER-888363-00]
49 | 12 | Cn1nc(C(F)(F)F)c(C(=O)NC2(c3ccc(C(=O)O)cc3)CC2)c1Oc1ccc(C(F)(F)F)cc1 [ER-888364-00]
50 | 28 | C[C@H](NC(=O)c1c(C(F)(F)F)nn(C)c1Oc1ccc(C(F)(F)F)cc1)c1ccc(C(=O)O)cc1 [ER-888365-00]
51 | 15 | Cn1nc(C(F)F)c(C(=O)NC2(c3ccc(C(=O)O)cc3)CC2)c1Oc1ccc(C(F)(F)F)cc1 [ER-888366-00]
52 | 23 | C[C@H](NC(=O)c1c(C(F)F)nn(C)c1Oc1ccc(C(F)(F)F)cc1)c1ccc(C(=O)O)cc1 [ER-888367-00]
53 | 18 | Cn1nc(C(F)(F)F)c(C(=O)NC2(c3ccc(C(=O)O)cc3)CC2)c1Oc1ccc(Cl)cc1 [ER-888368-00]
54 | 89 | C[C@H](NC(=O)c1c(C(F)(F)F)nn(C)c1Oc1ccc(Cl)cc1)c1ccc(C(=O)O)cc1 [ER-888369-00]
55 | 35 | Cn1nc(C(F)F)c(C(=O)NC2(c3ccc(C(=O)O)cc3)CC2)c1Oc1ccc(Cl)cc1 [ER-888370-00]
56 | 89 | C[C@H](NC(=O)c1c(C(F)F)nn(C)c1Oc1ccc(Cl)cc1)c1ccc(C(=O)O)cc1 [ER-888371-00]
